The text below walks through data of US10472356B2, “Bicyclic ketone sulfonamide compounds” (AMGEN INC., priority 2015, dated 2019).

One may read the IC50 as the concentration at which inhibition is half-maximal.

The target of assay [1] is T1, human Nav1.7 (Homo sapiens, UniProt Q15858).
T1 construct: expressed in transfected cells; host or cells: HEK293
The assay is described as follows: Nav 1.7 In Vitro PatchXpress (PX) Assay. The format is cell-based. To be noted: HEK 293 cells stably transfected with human Nav1.7; PatchXpress whole cell voltage clamp; partially inactivated state (holding potential yielding 20 to 50% inactivation); read-out: hNav1.7 PX IC50. Here is the method: Nav 1.7 In Vitro PatchXpress (PX) Assay
HEK 293 cells stably transfected with human Nav1.7 were recorded in whole cell voltage clamp mode with the PatchXpress automated electrophysiology system (Molecular Devices, LLC, Sunnyvale, Calif.). Compound effects were measured on a partially inactivated state of the sodium channel. Cells were clamped to a holding potential yielding 20 to 50% inactivation. To elicit sodium current, channels were activated by pulsing to −10 mV for 20 msec. This voltage protocol was repeated at a rate of 0.1 Hz throughout the experiment. A single concentration of test compound was applied to cells for a duration of 3 minutes. Peak sodium current was measured at the end of the compound addition period to determine percent inhibition. Three to five cells were tested per concentration, and IC50 curves were fitted to percent inhibition as a function of concentration.

Assay [2] has as its target T1, human Nav1.7. The assay is described as follows: Nav 1.7 IWB In Vitro Assay (IonWorks Barracuda). The format is cell-based. The conditions noted are these: HEK293 cells stably transfected with human Nav 1.7; IonWorks Barracuda population patch-clamp; cells clamped to −20 mV for 4 minutes with compound; 26th pulse; read-out: hNav1.7 IWB IC50. Here is the method: Nav 1.7 IWB In Vitro Assay
HEK293 cells stably transfected with human Nav 1.7 were recorded in population patch-clamp mode with the IonWorks© Barracuda (IWB) automated electrophysiology system (Molecular Devices, LLC, Sunnyvale, Calif.). From a holding potential of −110 mV, sodium currents were elicited by a train of 26 depolarizations of 150 ms duration to −20 mV at a frequency of 5 Hz. Cells were then clamped to −20 mV for a period of 4 minutes in the presence of a single concentration of test compound. Following this compound incubation period, cells were clamped to −110 mV for three seconds to recover unbound channels and put through the same 26 pulse voltage protocol as above. Peak inward current during the 26th pulse to −20 mV in the presence of compound was divided by the peak inward current evoked by the 26th pulse to −20 mV in the absence of compound to determine percent inhibition. Concentration-response curves of percent inhibition as a function of concentration were generated to calculate IC50 values.
A general note: In patch-clamp work, channel activity is measured electrically.

T1 sequence (Q15858 whole entry): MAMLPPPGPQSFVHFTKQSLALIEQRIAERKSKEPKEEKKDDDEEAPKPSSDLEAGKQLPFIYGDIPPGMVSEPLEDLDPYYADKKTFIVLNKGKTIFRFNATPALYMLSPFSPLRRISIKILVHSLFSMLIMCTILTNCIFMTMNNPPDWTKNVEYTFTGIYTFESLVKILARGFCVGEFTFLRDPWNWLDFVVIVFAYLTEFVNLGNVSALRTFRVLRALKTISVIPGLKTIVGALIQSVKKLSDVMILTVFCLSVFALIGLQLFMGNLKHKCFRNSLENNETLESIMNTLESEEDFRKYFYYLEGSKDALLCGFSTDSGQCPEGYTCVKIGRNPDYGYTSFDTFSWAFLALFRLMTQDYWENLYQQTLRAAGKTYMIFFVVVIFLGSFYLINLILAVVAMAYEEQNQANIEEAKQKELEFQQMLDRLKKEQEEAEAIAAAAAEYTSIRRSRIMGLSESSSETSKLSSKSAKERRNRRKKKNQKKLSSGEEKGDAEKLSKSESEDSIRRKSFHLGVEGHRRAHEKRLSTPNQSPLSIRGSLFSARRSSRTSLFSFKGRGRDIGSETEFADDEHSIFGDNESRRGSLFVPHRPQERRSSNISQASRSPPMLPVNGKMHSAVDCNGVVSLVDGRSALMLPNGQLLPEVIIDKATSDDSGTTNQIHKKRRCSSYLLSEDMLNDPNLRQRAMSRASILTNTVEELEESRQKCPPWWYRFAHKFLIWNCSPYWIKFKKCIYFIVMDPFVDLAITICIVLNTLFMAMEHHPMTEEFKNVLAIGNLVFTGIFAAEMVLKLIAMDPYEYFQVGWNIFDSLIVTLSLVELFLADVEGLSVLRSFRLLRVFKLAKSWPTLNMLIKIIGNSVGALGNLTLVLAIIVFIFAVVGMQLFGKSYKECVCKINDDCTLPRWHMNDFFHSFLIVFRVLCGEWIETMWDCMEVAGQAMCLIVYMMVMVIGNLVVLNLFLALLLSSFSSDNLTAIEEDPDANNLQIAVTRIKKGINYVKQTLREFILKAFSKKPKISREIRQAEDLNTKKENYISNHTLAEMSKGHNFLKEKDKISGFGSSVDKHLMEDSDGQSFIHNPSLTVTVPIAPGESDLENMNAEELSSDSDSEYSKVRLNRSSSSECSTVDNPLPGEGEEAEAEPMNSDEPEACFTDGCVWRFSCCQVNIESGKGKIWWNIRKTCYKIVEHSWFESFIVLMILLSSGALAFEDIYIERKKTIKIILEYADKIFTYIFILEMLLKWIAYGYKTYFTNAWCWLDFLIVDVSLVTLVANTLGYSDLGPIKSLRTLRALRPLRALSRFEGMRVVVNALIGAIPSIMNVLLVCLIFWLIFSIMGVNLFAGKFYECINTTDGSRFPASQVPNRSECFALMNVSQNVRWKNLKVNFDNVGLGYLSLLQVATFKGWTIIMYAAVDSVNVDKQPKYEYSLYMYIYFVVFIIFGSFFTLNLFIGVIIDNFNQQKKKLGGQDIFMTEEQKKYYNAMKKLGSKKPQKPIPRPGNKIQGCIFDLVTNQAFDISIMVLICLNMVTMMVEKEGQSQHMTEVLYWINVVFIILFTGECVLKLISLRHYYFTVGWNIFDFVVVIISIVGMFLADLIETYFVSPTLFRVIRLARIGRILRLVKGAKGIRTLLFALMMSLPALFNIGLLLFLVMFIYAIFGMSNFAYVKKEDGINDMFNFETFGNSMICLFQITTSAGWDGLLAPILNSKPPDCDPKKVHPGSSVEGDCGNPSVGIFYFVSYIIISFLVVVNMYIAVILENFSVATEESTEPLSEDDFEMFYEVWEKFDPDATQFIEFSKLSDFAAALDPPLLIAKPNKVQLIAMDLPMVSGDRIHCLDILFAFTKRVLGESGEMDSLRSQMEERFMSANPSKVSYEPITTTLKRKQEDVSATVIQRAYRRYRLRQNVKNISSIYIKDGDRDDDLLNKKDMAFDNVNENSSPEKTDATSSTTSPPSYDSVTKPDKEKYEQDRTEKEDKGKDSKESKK

`COc1cc(-c2ccc(F)c(C)c2)c(Cl)cc1-n1c2c(ccc1=O)CN(S(=O)(=O)Nc1cccnn1)CC2` (single isomer, unassigned) [Example 92-M, M-1-(2-chloro-4′-fluoro-5-methoxy-3′-methyl-[1,1′-biphenyl]-4-yl)-2-oxo-N-(pyridazin-3-yl)-1,2,7,8-tetrahydro-1,6-naphthyridine-6(5H)-sulfonamide]: the 50% inhibitory concentration (IC50) on human Nav1.7 [1] worked out at 3010 nM; at human Nav1.7 [2] it was 282 nM.
In the same order, the values of `COc1cc(-c2cccc(C(F)(F)F)c2)c(Cl)cc1-n1c2c(ccc1=O)CN(S(=O)(=O)Nc1cccnn1)CC2` (single isomer, unassigned) [Example 91-M, M-1-(2-chloro-5-methoxy-3′-(trifluoromethyl)-[1,1′-biphenyl]-4-yl)-2-oxo-N-(pyridazin-3-yl)-1,2,7,8-tetrahydro-1,6-naphthyridine-6(5H)-sulfonamide] are 681 nM and 154 nM.
For `COc1cc(-c2cc(F)cc(Cl)c2)c(F)cc1-n1c2c(ccc1=O)CN(S(=O)(=O)Nc1ccccn1)CC2` (racemic) [Example 11-(Rac), (Rac)-1-(3′-chloro-2,5′-difluoro-5-methoxy-4-biphenylyl)-2-oxo-N-2-pyridinyl-1,5,7,8-tetrahydro-1,6-naphthyridine-6(2H)-sulfonamide], the IC50 at human Nav1.7 [1] was 371 nM; on human Nav1.7 [2], 60.9 nM.
In the same order, the values of `COc1cc(-c2ccc(F)c(C)c2)c(F)cc1-n1c2c(ccc1=O)CN(S(=O)(=O)Nc1cccnn1)CC2` [Example 73, P-1-(2,4′-difluoro-5-methoxy-3′-methyl-[1,1′-biphenyl]-4-yl)-2-oxo-N-(pyridazin-3-yl)-1,2,7,8-tetrahydro-1,6-naphthyridine-6(5H)-sulfonamide] are 232 nM and 18 nM.
In the same order, the values of `COc1cc(-c2ccc(F)c(C)c2)c(F)cc1-n1c2c(ccc1=O)CN(S(=O)(=O)Nc1ncccn1)CC2` (single isomer, unassigned) [Example 29-P, P-1-(2,4′-difluoro-5-methoxy-3′-methyl-4-biphenylyl)-2-oxo-N-2-pyrimidinyl-1,5,7,8-tetrahydro-1,6-naphthyridine-6(2H)-sulfonamide] are 568 nM and 55.5 nM.
In the same order, the values of `COc1cc(-c2cc(F)cc(Cl)c2)ccc1-n1c2c(ccc1=O)CN(S(=O)(=O)Nc1ccon1)CC2` (racemic) [7-(Rac), (Rac)-1-(3′-chloro-5′-fluoro-3-methoxy-4-biphenylyl)-N-3-isoxazolyl-2-oxo-1,5,7,8-tetrahydro-1,6-naphthyridine-6(2H)-sulfonamide] are 254 nM and 16.7 nM.
With `COc1cc(-c2cc(F)cc(Cl)c2)c(F)cc1-n1c2c(ccc1=O)CN(S(=O)(=O)Nc1ccnc(C)n1)CC2` (racemic) [6-(Rac), (Rac)-1-(3′-chloro-2,5′-difluoro-5-methoxy-4-biphenylyl)-N-(2-methyl-4-pyrimidinyl)-2-oxo-1,5,7,8-tetrahydro-1,6-naphthyridine-6(2H)-sulfonamide], the concentration for half-maximal inhibition (IC50) at human Nav1.7 [1] turned out to be 666 nM; at human Nav1.7 [2], 101 nM.
As for `COc1cc(-c2cc(Cl)cnc2OC)c(F)cc1-n1c2c(ccc1=O)CN(S(=O)(=O)Nc1cccnn1)CC2` [Example 60, P-1-(4-(5-chloro-2-methoxypyridin-3-yl)-5-fluoro-2-methoxyphenyl)-2-oxo-N-(pyridazin-3-yl)-1,2,7,8-tetrahydro-1,6-naphthyridine-6(5H)-sulfonamide], the IC50 at human Nav1.7 [1] is 420 nM; at human Nav1.7 [2], 37.5 nM.
In the same order, the values of `COc1cc(-c2cc(F)cc(Cl)c2)ccc1-n1c2c(ccc1=O)CN(S(=O)(=O)Nc1cccnn1)CC2` (racemic) [8-(Rac), (Rac)-1-(3′-chloro-5′-fluoro-3-methoxy-4-biphenylyl)-2-oxo-N-3-pyridazinyl-1,5,7,8-tetrahydro-1,6-naphthyridine-6(2H)-sulfonamide] are 350 nM and 31.7 nM.
In the same order, the values of `COc1cc(-c2ccc(F)c(C)c2)c(Cl)cc1-n1c2c(ccc1=O)CN(S(=O)(=O)Nc1cccnn1)CC2` (single isomer, unassigned) [Example 92-P, P-1-(2-chloro-4′-fluoro-5-methoxy-3′-methyl-[1,1′-biphenyl]-4-yl)-2-oxo-N-(pyridazin-3-yl)-1,2,7,8-tetrahydro-1,6-naphthyridine-6(5H)-sulfonamide] are 41.4 nM and 5.9 nM.
In the same order, the values of `COc1cc(-c2cc(C)ccc2Cl)c(F)cc1-n1c2c(ccc1=O)CN(S(=O)(=O)Nc1cccnn1)CC2` [Example 43, P-1-(2′-chloro-2-fluoro-5-methoxy-5′-methyl-4-biphenylyl)-2-oxo-N-3-pyridazinyl-1,5,7,8-tetrahydro-1,6-naphthyridine-6(2H)-sulfonamide] are 156 nM and 3.8 nM.
On to `COc1cc(-c2cc(F)cc(Cl)c2)c(F)cc1-n1c2c(ccc1=O)CN(S(=O)(=O)Nc1ncccn1)CC2` (single isomer, unassigned) [Example 31-M, M-1-(3′-chloro-2,5′-difluoro-5-methoxy-4-biphenylyl)-2-oxo-N-2-pyrimidinyl-1,5,7,8-tetrahydro-1,6-naphthyridine-6(2H)-sulfonamide], for which the IC50 on human Nav1.7 [1] stood at 5020 nM; at human Nav1.7 [2], 2730 nM.
In the same order, the values of `COc1cc(-c2ccc(Cl)c(C)c2)c(F)cc1-n1c2c(ccc1=O)CN(S(=O)(=O)Nc1ncccn1)CC2` (single isomer, unassigned) [Example 30-M, M-1-(4′-chloro-2-fluoro-5-methoxy-3′-methyl-4-biphenylyl)-2-oxo-N-2-pyrimidinyl-1,5,7,8-tetrahydro-1,6-naphthyridine-6(2H)-sulfonamide] are 24900 nM and 3910 nM.
In the same order, the values of `COc1cc(-c2cccc(OC(F)F)c2)c(F)cc1-n1c2c(ccc1=O)CN(S(=O)(=O)Nc1ccon1)CC2` (single isomer, unassigned) [Example 19-M, M-1-(3′-(difluoromethoxy)-2-fluoro-5-methoxy-4-biphenylyl)-N-3-isoxazolyl-2-oxo-1,5,7,8-tetrahydro-1,6-naphthyridine-6(2H)-sulfonamide] are 17100 nM and 1940 nM.
For the molecule `COc1cc(-c2cc(C)cc(Cl)c2)c(F)cc1-n1c2c(ccc1=O)CN(S(=O)(=O)Nc1cccnn1)CC2` [Example 69, P-1-(3′-chloro-2-fluoro-5-methoxy-5′-methyl-[1,1′-biphenyl]-4-yl)-2-oxo-N-(pyridazin-3-yl)-1,2,7,8-tetrahydro-1,6-naphthyridine-6(5H)-sulfonamide], the IC50 is 22.8 nM at human Nav1.7 [1] and 16.9 nM at human Nav1.7 [2].
Turning to `COc1cc(-c2ccc(F)c(C)c2)c(C)cc1-n1c2c(ccc1=O)CN(S(=O)(=O)Nc1cccnn1)CC2` (single isomer, unassigned) [Example 93-P, P-1-(4′-fluoro-5-methoxy-2,3′-dimethyl-[1,1′-biphenyl]-4-yl)-2-oxo-N-(pyridazin-3-yl)-1,2,7,8-tetrahydro-1,6-naphthyridine-6(5H)-sulfonamide], the concentration for half-maximal inhibition (IC50) was determined as 116 nM on human Nav1.7 [1] and 21.8 nM on human Nav1.7 [2].
In the same order, the values of `COc1cc(-c2cccc(C(F)F)c2)c(F)cc1-n1c2c(ccc1=O)CN(S(=O)(=O)Nc1cccnn1)CC2` [Example 72, P-1-(3′-(difluoromethyl)-2-fluoro-5-methoxy-[1,1′-biphenyl]-4-yl)-2-oxo-N-(pyridazin-3-yl)-1,2,7,8-tetrahydro-1,6-naphthyridine-6(5H)-sulfonamide] are 265 nM and 15.1 nM.
Regarding `COc1ccc(-c2cc(OC)c(-n3c4c(ccc3=O)CN(S(=O)(=O)Nc3cccnn3)CC4)cc2F)cc1Cl` [Example 63, P-1-(3′-chloro-2-fluoro-4′,5-dimethoxy-[1,1′-biphenyl]-4-yl)-2-oxo-N-(pyridazin-3-yl)-1,2,7,8-tetrahydro-1,6-naphthyridine-6(5H)-sulfonamide], the IC50 on human Nav1.7 [1] worked out at 321 nM; at human Nav1.7 [2], 22.2 nM.
In the same order, the values of `COc1cc(-c2cc(F)cc(F)c2)c(F)cc1-n1c2c(ccc1=O)CN(S(=O)(=O)Nc1ncc(F)cn1)CC2` (single isomer, unassigned) [Example 10-M, M-N-(5-fluoro-2-pyrimidinyl)-2-oxo-1-(2,3′,5′-trifluoro-5-methoxy-4-biphenylyl)-1,5,7,8-tetrahydro-1,6-naphthyridine-6(2H)-sulfonamide] are 612 nM and 102 nM.
In the same order, the values of `COc1cc(-c2cc(F)cc(F)c2)c(F)cc1-n1c2c(ccc1=O)[C@@H](C)N(S(=O)(=O)Nc1ccon1)CC2` (single isomer, unassigned) [Example 3-A-M] are greater than 1000 nM and 2800 nM.
